Assay results taken from patent US20260216347A1, “Substituted Imidazo-Based Compounds as Ligand Directed Degraders of IRAK3” (Celgene Corporation, priority 2022, published 2026).

Target: T1, IRAK3-ePL (Homo sapiens, UniProt Q9Y616)
T1 construct: expressed in transfected cells; host or cells: 293T CRBN OE/GSPT1 G575N KI cells, lentiviral transduction, puromycin selected
Assay: IRAK3-ePL overexpressing degradation assay (InCELL Hunter luminescence, dose response)
Format: cell-based
Settings: for IRAK3 ePL degradation Ymin: lowest percentage of target protein remaining following compound treatment; for DC50: read-out: IRAK3 ePL degradation EC50
Method in brief: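 Lenti-X 293T CRBN/GSPT1 G575N cells stably expressing IRAK3-ePL (5,000/well) treated overnight at 37° C with 10-point 3-fold dilutions from 10 μM, 0.2% DMSO. InCELL Hunter luminescence, background subtracted using Ataluren wells and normalized to DMSO; EC50 from four-parameter logistic fit.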

| SMILES | IRAK3 ePL degradation Ymin [%] | DC50 [nM] |
| --- | --- | --- |
| Cc1cc(-c2cnc(Nc3cnn([C@H]4CCN(CCN5CCN(c6ccc(C7CCC(=O)NC7=O)cc6)C[C@H]5C)[C@@H](C)C4)c3)c3nccn23)c(F)cc1F (stereo partly drawn) [Compound 35, 3-(4-((R)-4-(2-((2S,4S)-4-(4-((5-(2,4-difluoro-5-methylphenyl)imdazo [1,2-a]pyrazin-8-yl)amino)-1H-pyrazol-1-yl)-2-methylpiperidin-1-yl)ethyl)-3-methylpiperazin-1-yl)phenyl) piperidine-2,6-dione] | 24 | 0.63 |
| Cc1cc(-c2cnc(Nc3cnn([C@H]4CCN(CCN5CCN(c6ccc(C7CCC(=O)NC7=O)cc6)CC5)C[C@@H]4F)c3)c3nccn23)c(F)cc1F (stereo partly drawn) [Compound 72, 3-(4-(4-(2-((3S,4S)-4-(4-((5-(2,4-difluoro-5-methylphenyl)imdazo [1,2-a]pyrazin-8-yl)amino)-1H-pyrazol-1-yl)-3-fluoropiperidin-1-yl)ethyl)piperazin-1-yl)phenyl) piperidine-2,6-dione] | 24 | 0.51 |
| O=C1CCC(c2ccc(N3CCN(CCN4CCC(n5cc(Nc6ncc(-c7ccc(F)cc7)n7ccnc67)cn5)CC4)CC3)cc2)C(=O)N1 (stereo not shown) [Compound 74, 3-(4-(4-(2-(4-(4-((5-(4-fluorophenyl)imidazo [1,2-a]pyrazin-8-yl)amino)-1H-pyrazol-1-yl)piperidin-1-yl)ethyl)piperazin-1-yl)phenyl) piperidine-2,6-dione] | 26 | 1 |
| O=C1CCC(c2ccc(N3CCN(CCN4CCC(n5cc(Nc6ncc(-c7ccccc7F)n7ccnc67)cn5)CC4)CC3)cc2)C(=O)N1 (stereo not shown) [Compound 75, 3-(4-(4-(2-(4-(4-((5-(2-fluorophenyl)imidazo [1,2-a]pyrazin-8-yl)amino)-1H-pyrazol-1-yl)piperidin-1-yl)ethyl)piperazin-1-yl)phenyl) piperidine-2,6-dione] | 25 | 4.1 |
| Cc1cc(-c2cnc(Nc3cnn(C4CCN(CCN5CCN(c6ccc([C@]7(C)CCC(=O)NC7=O)cc6)CC5)CC4)c3)c3nccn23)c(F)cc1F [Compound 76, (S)-3-(4-(4-(2-(4-(4-((5-(2,4-difluoro-5-methylphenyl)imdazo [1,2-a]pyrazin-8-yl)amino)-1H-pyrazol-1-yl)piperidin-1-yl)ethyl)piperazin-1-yl)phenyl)-3-methylpiperidine-2,6-dione] | 78 | – |
| Cc1cc(-c2cnc(Nc3cnn(C4CCN(CCN5CCN(c6ccc([C@@]7(C)CCC(=O)NC7=O)cc6)CC5)CC4)c3)c3nccn23)c(F)cc1F [Compound 77, (R)-3-(4-(4-(2-(4-(4-((5-(2,4-difluoro-5-methylphenyl)imdazo [1,2-a]pyrazin-8-yl)amino)-1H-pyrazol-1-yl)piperidin-1-yl)ethyl)piperazin-1-yl)phenyl)-3-methylpiperidine-2,6-dione] | 27 | 1.1 |
| O=C1CCC(c2ccc(N3CCN(CCN4CCC(n5cc(Nc6ncc(-c7cccc(F)c7)n7ccnc67)cn5)CC4)CC3)cc2)C(=O)N1 (stereo not shown) [Compound 80, 3-(4-(4-(2-(4-(4-((5-(3-fluorophenyl)imidazo [1,2-a]pyrazin-8-yl)amino)-1H-pyrazol-1-yl)piperidin-1-yl)ethyl)piperazin-1-yl)phenyl) piperidine-2,6-dione] | 28 | 26 |
| Cc1cc(-c2cnc(Nc3cnn([C@H]4CC[C@H](CCN5CCN(c6ccc([C@@]7(C)CCC(=O)NC7=O)cc6)CC5)CC4)c3)c3nccn23)c(F)cc1F [Compound 81, (R)-3-(4-(4-(2-((trans)-4-(4-((5-(2,4-difluoro-5-methylphenyl)imidazo[1,2-a]pyrazin-8-yl)amino)-1H-pyrazol-1-yl)cyclohexyl)ethyl)piperazin-1-yl)phenyl)-3-methylpiperidine-2,6-dione] | 27 | 3.3 |
| Cc1cc(-c2cnc(Nc3cnn([C@H]4CC[C@H](CCN5CCN(c6ccc([C@]7(C)CCC(=O)NC7=O)cc6)CC5)CC4)c3)c3nccn23)c(F)cc1F [Compound 82, (S)-3-(4-(4-(2-((trans)-4-(4-((5-(2,4-difluoro-5-methylphenyl)imidazo[1,2-a]pyrazin-8-yl)amino)-1H-pyrazol-1-yl)cyclohexyl)ethyl)piperazin-1-yl)phenyl)-3-methylpiperidine-2,6-dione] | 66 | – |
